In brackets after ≈: the same amount, converted by molar mass.
Assays:
[1] = Arch. Pharm. 321, 371 (1988); cited from earlier work
[2] = for solubility in water, corresponding thalidomide amount: thalidomide equivalent of the water solubility; for solubility: water, 25 °C
serum IL-2 = assay: SEB-induced increase in serum IL-2 in galactosamine-pretreated balb/c mice; type: in vivo; conditions: 30 minutes before SEB; for Max. inhibition of the increase in serum IL-2 at a dose of 400 mg/kg: 400 mg/kg intraperitoneally, IL-2 2 hours after SEB, balb/c mice
release of TNF-α = assay: LPS-induced release of TNF-α in human mononuclear cells of the peripheral blood (ELISA); type: cell-based; conditions: LPS stimulation; for inhibition at 50 µg/mL: read-out: Inhibition of the release of TNF-α at a final concentration of 50 μg/ml; for IC50: Homo sapiens, linear regression line, read-out: IC50 (50% inhibition of the release of TNF-α)
Experimental: The release of TNF-α was investigated in vitro on human mononuclear cells of the peripheral blood (T cells, B cells and monocytes), after stimulation with lipopolysaccharide (LPS). LPS is a constituent of the bacterial cell wall and stimulates monocytes and macrophages.
Mononuclear cells were obtained from the heparin-treated blood of at least three volunteer donors. For this purpose, 20 ml blood in each case were separated by known methods via a Ficoll-Paque gradient, and the cells were harvested and washed three times with a cell culture medium. The cell culture medium which was used consisted of RPMI 1640 medium, supplemented with 2 mM glutamine (Life Technologies, Eggenstein), 10% foetal calf serum (Life Technologies), […] streptomycin (Sigma, Deisenhofen), 50 IU/ml penicillin (Sigma, Deisenhofen) and 100 μM β-mercaptoethanol (Merck, Darmstadt). The mononuclear cells were subsequently taken up in 15 ml cell culture medium and were divided into 1 ml batches in sterile 24-hole incubation plates (Sigma) 1 μl dimethylsulphoxide (DMSO, Merck) was added to the 1 ml batches which were used as the control batch. 1 μl of a solution of a compound according to the invention (in DMSO; final concentration in the test: 0.5; 5; 12.5 and 50 μg/ml) was added to the test batches. The batches were incubated for one hour in a CO2 incubation cabinet (5% CO2, 90% atmospheric humidity). 2.5 μg LPS (from E. coli 0127: B8, Sigma, Deisenhofen) was subsequently added as a stimulant to each batch with the exception of the control batches. Incubation of the cultures was continued for 20 hours. Following the incubation, the concentration of TNF-α in the cell culture supernatant liquors was determined by ELISA tests (Boehringer Mannheim).

[3] = 50 μg/ml, 20 hours, human mononuclear cells

Molecule | solubility in water, corresponding thalidomide amount [2] [mg thalidomide/ml] | solubility [2] [mg/mL] | Max. inhibition of the increase in serum IL-2 at a dose of 400 mg/kg (serum IL-2) [%] | inhibition at 50 µg/mL (release of TNF-α; [3]) [%] | also measured
O=C1CCC(N2C(=O)c3ccccc3C2=O)C(=O)N1 (stereo not shown) [thalidomide] | – | – | – | – | solubility of thalidomide in water [1]: 0.012 mg/mL
Cl.NCC(=O)NCC(=O)OCN1C(=O)CCC(N2C(=O)c3ccccc3C2=O)C1=O (stereo not shown) [Compound 8, 2-(aminomethylcarbonylamino) acetic acid-[3(1,3-dihydro-1,3-dioxo-2H-isoindol-2-yl)-2,6-dioxo-piperidin-1-yl]methyl ester hydrochloride] | > 190 | > 300 | – | – | –
Cl.NCC(=O)OCN1C(=O)CCC(N2C(=O)c3ccccc3C2=O)C1=O (stereo not shown) [Compound 2, 2-aminoacetic acid-[3-(1,3-dihydro-1,3-dioxo-2H-isoindol-2-yl)-2,6-dioxo-piperidin-1-yl]methyl ester hydrochloride] | 33.6 | 497 | 68 | 54 | ED40 (dose giving 40% reduction in serum IL-2 concentrations) (serum IL-2; intraperitoneal, regression line): 230 mg/kg
[3-(1,3-dihydro-1,3-dioxo-2H-isoindol-2-yl)-2,6-dioxo-piperidin-1-yl]-methoxycarbonylpropionic acid [Compound 9] | – | – | – | – | Inhibition of the release of TNF-α at a final concentration of 50 μg/ml (release of TNF-α; [3]): 35%
CC(C)(C)OC(=O)NCC(=O)OCN1C(=O)CCC(N2C(=O)c3ccccc3C2=O)C1=O (stereo not shown) [Compound 1, N-t-butyl oxycarbonyl-2-aminoacetic acid-[3-(1,3-dihydro-1,3-dioxo-2H-isoindol-2-yl)-2,6-dioxopiperidin-1-yl]methyl ester] | – | – | 34 | 78 | IC50 (release of TNF-α): 2.7 µg/mL (≈ 6.06 µM)
CNC(C)C(=O)OCN1C(=O)CCC(N2C(=O)c3ccccc3C2=O)C1=O.Cl (stereo not shown) [Compound 4, 2-m ethylaminopropionic acid-[3-(1,3-dihydro-1,3-dioxo-2H-isoindol-2-yl)-2,6-dioxopiperidin-1-yl]methyl ester hydrochloride] | > 190 | > 300 | 26 | – | melting point: 147 to 151 °C
CC(C)C(N)C(=O)OCN1C(=O)CCC(N2C(=O)c3ccccc3C2=O)C1=O.Cl (stereo not shown) [Compound 6, 2-amino-3-methylbutyric acid-[3-(1,3-dihydro-1,3-dioxo-2H-isoindol-2-yl)-2,6-dioxopiperidin-1-yl]methyl ester hydrochloride] | > 190 | > 300 | 52 | 97 | melting point: 145 to 150 °C; IC50 (release of TNF-α): 2 µg/mL

— patent US6417197B1, “Acylated n-hydroxy methyl thalidomide prodrugs with immunomodulator action” (Gruenenthal GmbH, priority 1996, dated 2002)
